In PubChem BioAssay (NCI):
Several values for one entry are separate records, joined by “and”; a condition that tells them apart may be missing. Equal values may be shown once.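 Briefly, cells in 96-well plates were exposed to five compound concentrations for 48 h, and endpoints were estimated by linear interpolation. Here, GI50 denotes the concentration required for 50% inhibition of growth. TGI is the concentration that stops growth completely.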

Legend:
Experiment in all cases: NCI tumour cell line growth inhibition, 48 h
MDA-MB-435 = test system: MDA-MB-435
UACC-62 melanoma = test system: UACC-62 melanoma
BT-549 breast = test system: BT-549 breast
XF 498 CNS = test system: XF 498 CNS
M14 melanoma = test system: M14 melanoma
TK-10 renal = test system: TK-10 renal
HOP-62 NSCLC = test system: HOP-62 NSCLC
A549 NSCLC = test system: A549 NSCLC
HCT-15 colon = test system: HCT-15 colon
OVCAR-5 ovarian = test system: OVCAR-5 ovarian
K-562 leukemia = test system: K-562 leukemia
ACHN renal = test system: ACHN renal
SR leukemia = test system: SR leukemia
T-47D breast = test system: T-47D breast
786-0 renal = test system: 786-0 renal
SK-OV-3 ovarian = test system: SK-OV-3 ovarian
HOP-92 NSCLC = test system: HOP-92 NSCLC
HL-60(TB) leukemia = test system: HL-60(TB) leukemia
SF-268 CNS = test system: SF-268 CNS
RXF 393 renal = test system: RXF 393 renal
SNB-75 CNS = test system: SNB-75 CNS
SF-295 CNS = test system: SF-295 CNS
DMS 273 small cell lung = test system: DMS 273 small cell lung
SK-MEL-2 melanoma = test system: SK-MEL-2 melanoma
NCI-H226 lung = test system: NCI-H226 lung
UO-31 renal = test system: UO-31 renal
SK-MEL-5 melanoma = test system: SK-MEL-5 melanoma
PC-3 prostate = test system: PC-3 prostate
KM20L2 colon = test system: KM20L2 colon
OVCAR-8 ovarian = test system: OVCAR-8 ovarian
DU-145 prostate = test system: DU-145 prostate
OVCAR-3 ovarian = test system: OVCAR-3 ovarian
NCI-H460 lung = test system: NCI-H460 lung
NCI-H522 lung = test system: NCI-H522 lung
UACC-257 melanoma = test system: UACC-257 melanoma
P388/ADR leukemia = test system: P388/ADR leukemia
OVCAR-4 ovarian = test system: OVCAR-4 ovarian
HS 578T breast = test system: HS 578T breast
COLO 205 colon = test system: COLO 205 colon
MALME-3M melanoma = test system: MALME-3M melanoma
P388 leukemia = test system: P388 leukemia
HCC-2998 colon = test system: HCC-2998 colon
SNB-19 CNS = test system: SNB-19 CNS
M19-MEL melanoma = test system: M19-MEL melanoma
MDA-MB-231 breast = test system: MDA-MB-231 breast
SK-MEL-28 melanoma = test system: SK-MEL-28 melanoma
DLD-1 colon = test system: DLD-1 colon
CCRF-CEM leukemia = test system: CCRF-CEM leukemia
U251 CNS = test system: U251 CNS
DMS 114 small cell lung = test system: DMS 114 small cell lung
SN12C renal = test system: SN12C renal
SW-620 colon = test system: SW-620 colon
MDA-N = test system: MDA-N
RPMI-8226 leukemia = test system: RPMI-8226 leukemia

In the case of C1CN1c1nc(N2CC2)nc(N2CC2)n1, the GI50 (MDA-MB-435) is reported as 16.5 µM, the TGI (MDA-MB-435) is reported as 35.8 µM and 29.9 µM and the GI50 (UACC-62 melanoma) is reported as 3.75 µM. The TGI (UACC-62 melanoma) was 14.8 µM and 17 µM, the GI50 (BT-549 breast) was 8.42 µM and the TGI (BT-549 breast) was 45.1 µM and 19.1 µM. The TGI (XF 498 CNS) was 17.2 µM, the GI50 (M14 melanoma) was 3.86 µM and the TGI (M14 melanoma) was 23.9 µM and 34.9 µM. The GI50 (TK-10 renal) was 4.36 µM, the TGI (TK-10 renal) was 79.8 µM and 16.7 µM and the GI50 (HOP-62 NSCLC) was 5.92 µM. The TGI (HOP-62 NSCLC) was 15.7 µM and 30.1 µM, the GI50 (A549 NSCLC) was 4.99 µM and the TGI (A549 NSCLC) was 31 µM and 28.3 µM. The GI50 (HCT-15 colon) was 10.1 µM, the TGI (HCT-15 colon) was 50.2 µM and 24.6 µM and the GI50 (OVCAR-5 ovarian) was 13.7 µM. For the same molecule, the TGI (OVCAR-5 ovarian) was 42 µM and 31.4 µM, the TGI (K-562 leukemia) was 77.9 µM and the TGI (ACHN renal) was 20.5 µM. The TGI (SR leukemia) was 19.6 µM, the GI50 (T-47D breast) was 8.23 µM and 1.24 µM and the TGI (T-47D breast) was 76.6 µM and 19.6 µM. The GI50 (786-0 renal) was 1.83 µM, the TGI (786-0 renal) was 17 µM and 16 µM and the GI50 (SK-OV-3 ovarian) was 13.9 µM. For the same molecule, the TGI (SK-OV-3 ovarian) was 41.1 µM and 36.6 µM, the GI50 (HOP-92 NSCLC) was 8.04 µM and the TGI (HOP-92 NSCLC) was 35.9 µM and 17.7 µM. The GI50 (HL-60(TB) leukemia) was 0.195 µM, the TGI (HL-60(TB) leukemia) was 24.5 µM and > 100 µM and the GI50 (SF-268 CNS) was 1.45 µM. For the same molecule, the TGI (SF-268 CNS) was 37.5 µM and 14.8 µM, the GI50 (RXF 393 renal) was 3.32 µM and the TGI (RXF 393 renal) was 21.6 µM and 13.5 µM. For the same molecule, the GI50 (SNB-75 CNS) was 8.99 µM, the TGI (SNB-75 CNS) was 25.7 µM and 31.5 µM and the GI50 (SF-295 CNS) was 1.31 µM. The TGI (SF-295 CNS) was 19.7 µM and 24.9 µM, the TGI (DMS 273 small cell lung) was 20.5 µM and the GI50 (SK-MEL-2 melanoma) was 19.8 µM. The TGI (SK-MEL-2 melanoma) was 36.4 µM and 31.3 µM, the GI50 (NCI-H226 lung) was 10.8 µM and the TGI (NCI-H226 lung) was 27.3 µM and 25.7 µM. The GI50 (UO-31 renal) was 1.28 µM, the TGI (UO-31 renal) was 23.4 µM and 3.68 µM and the GI50 (SK-MEL-5 melanoma) was 6.93 µM. For the same molecule, the TGI (SK-MEL-5 melanoma) was 19.6 µM and 14 µM, the GI50 (PC-3 prostate) was 20.2 µM and the TGI (PC-3 prostate) was 69.3 µM and > 71.2 µM. For the same molecule, the TGI (KM20L2 colon) was 47.7 µM, the GI50 (OVCAR-8 ovarian) was 5.11 µM and the TGI (OVCAR-8 ovarian) was 38.8 µM and 16.2 µM. For the same molecule, the GI50 (DU-145 prostate) was 0.825 µM, the TGI (OVCAR-3 ovarian) was 41.7 µM and 25.8 µM and the TGI (NCI-H460 lung) was 17.6 µM. The TGI (NCI-H522 lung) was 21 µM and 12.2 µM, the GI50 (UACC-257 melanoma) was 13.3 µM and the TGI (UACC-257 melanoma) was 31.9 µM and 23 µM. The TGI (P388/ADR leukemia) was 16.7 µM, the GI50 (OVCAR-4 ovarian) was 13.8 µM and the TGI (OVCAR-4 ovarian) was 36.5 µM and 20.3 µM. For the same molecule, the GI50 (HS 578T breast) was 23.4 µM, the TGI (HS 578T breast) was 87.5 µM and 52.8 µM and the TGI (COLO 205 colon) was 32 µM and 41 µM. The GI50 (MALME-3M melanoma) was 13.6 µM, the TGI (MALME-3M melanoma) was 28.2 µM and 22.5 µM and the TGI (P388 leukemia) was 17.3 µM. The GI50 (HCC-2998 colon) was 10.4 µM, the TGI (HCC-2998 colon) was 23.8 µM and 18.3 µM and the GI50 (SNB-19 CNS) was 4.55 µM. For the same molecule, the TGI (SNB-19 CNS) was 58.2 µM and > 51.3 µM, the TGI (M19-MEL melanoma) was 33 µM and the TGI (MDA-MB-231 breast) was 56.5 µM and 36.4 µM. It also gave a TGI (SK-MEL-28 melanoma) of 40 µM, a TGI (DLD-1 colon) of 78.8 µM and a GI50 (CCRF-CEM leukemia) of 0.195 µM. The GI50 (U251 CNS) was 6.6 µM, the TGI (U251 CNS) was 27.5 µM and > 50.1 µM and the TGI (DMS 114 small cell lung) was 23.2 µM. The GI50 (SN12C renal) was 4.32 µM, the TGI (SN12C renal) was 45.3 µM and 41.2 µM and the GI50 (SW-620 colon) was 7.84 µM. The TGI (SW-620 colon) was 56.3 µM and > 54.9 µM, the GI50 (MDA-N) was 15 µM and the TGI (MDA-N) was 42 µM and 33.3 µM. The GI50 (RPMI-8226 leukemia) was 15.9 µM and the TGI (RPMI-8226 leukemia) was 72.6 µM and 29.7 µM.
